≈ marks a conversion by molar mass, not a printed value.
Legend:
Type in all cases: cell-based
[1] = tested on: Endothelial cell line HUVEC; assay: Inhibitory activity on cells, CellTiter-Glo viability, HUVEC; conditions: Homo sapiens, 72 hours treatment
Procedure: (§1) HUVEC (purchased from Allcells Biological Technology (Shanghai) Co., Ltd.); UM-UC-3 (ATCC); LNCaP (ATCC); RM-1 (purchased from Nanjing Cobioer Biosciences Co., Ltd.) (1) On the first day, the cells were seeded in a 96-well plate, and the previous medium was poured off. 5 mL of DPBS was added to wash the cells, and then removed by a pipette and discarded. Then, 1 mL of trypsin (0.25%) was added, and the plate was placed in a cell culture incubator at 37 °C, 5% CO2 for digestion, and taken out after about 2 to 5 minutes. New corresponding medium was added, and pipetted to resuspend the cells evenly, and the cells were then counted with an automated cell counter. Regarding HUVEC, the medium used was endothelial cell complete medium; regarding UM-UC-3, the medium used was 89 v % EMEM+10 v % fetal bovine serum+1 v % penicillin-streptomycin double anti-body; regarding LNcaP, the medium used was 89 v % RPM11640+10 v % fetal bovine serum+1 v % penicillin-streptomycin double anti-body; and regarding RM1, the medium used was 89 v % DMEM+10 v % fetal bovine serum+1 v % penicillin-streptomycin double anti-body. (2) HUVEC cells were seeded in columns 1 to 11 of a 96-well plate (Corning, Cat. No. 3610) at a density of 2000 cells per well in 100 μL of medium, and the medium free of cell was added to the wells of column 12. The other three types of cells were also seeded, wherein UM-UC-3 and RM-1 cells were seeded at a density of 3000 cells per well, and LNCap cells were seeded at a density of 5000 cells per well. Then, the plate was placed in an incubator at 37° C., 5% CO2 for 24 hours. (3) On the second day, the compounds of the present invention and the reference drug nitroxoline (obtained according to the preparation method disclosed in the prior art) were diluted in gradient (2.5 folds, started at 100 μmol) to obtain 8 dose points (there were a total of 8 columns of wells; the first column of wells had the highest concentration, the concentration decreased in turn, and the last column of wells had the lowest concentration). 10 μL of the compound diluted in gradient was added to the 100 μL of cells in column 1 to column 10 with an 8-channel pipette. 10 μL of the corresponding medium containing 0.33 v % DMSO was added to column 11 and column 12. The plate was incubated in an incubator at 37° C., 5% CO2 for 72 hours (note: column 11 was used as MAX well with cells and no compounds; and column 12 was used as MIN well with no cells and no compounds). (4) After treating with the compounds of the present invention for 72 hours, the cell viability detection reagents in the above CellTiter-Glo® assay kit were added to the 96-well plate at 50 μL per well according to the instructions. The plate was shaken on a shaker in the dark for 5 to 10 minutes, and then the cell activity was determined by a multifunctional microplate reader. Finally, the growth inhibition of the compounds of the present invention on the cells was plotted by XLFIT 5.3 software, and the IC50 values of the compounds of the present invention were calculated.

[2] = tested on: Bladder cancer cell line UM-UC-3; assay: Inhibitory activity on cancer cells, CellTiter-Glo viability, UM-UC-3; conditions: Homo sapiens, UMUC3, 72 hours treatment
Procedure: as §1

[3] = tested on: Prostate cancer cell line LNcaP; assay: Inhibitory activity on cancer cells, CellTiter-Glo viability, LNcaP; conditions: Homo sapiens, 72 hours treatment
Procedure: as §1

[4] = tested on: Mouse prostate cancer cell line RM1; assay: Inhibitory activity on cancer cells, CellTiter-Glo viability, RM1; conditions: 72 hours treatment
Procedure: as §1

[5] = tested on: Escherichia coli (carbapenem-resistant clinical isolate; ATCC25922); assay: MIC by micro broth dilution (CLSI), Escherichia coli; conditions: for MIC50 / MIC90: ATCC25922, Clinical strain; for MIC50 / MIC90 / MIC: Escherichia coli; for MIC50: read-out: MIC50; for MIC90: read-out: MIC90; for MIC: Standard strain ATCC25922, read-out: MIC
Procedure, shortened: (§2)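 MICs against clinical resistant and sensitive isolates and reference strains determined in CAMHB following CLSI microdilution, incubating 20 h at 35±2 °C in air. Final inoculum 10^5 CFU/mL; DMSO-dissolved compound tested over 0.06–128 mg/L; CLSI M100 (2019) criteria applied.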

[6] = tested on: Acinetobacter baumannii (carbapenem-resistant clinical isolates; ATCC19606); assay: MIC by micro broth dilution (CLSI), Acinetobacter baumannii; conditions: for MIC50 / MIC90: ATCC19606, Clinical strain; for MIC50 / MIC90 / MIC: Acinetobacter baumannii; for MIC50: read-out: MIC50; for MIC90: read-out: MIC90; for MIC: Standard strain ATCC19606, read-out: MIC
Procedure, shortened: as §2

[7] = tested on: Staphylococcus aureus (methicillin-resistant and sensitive clinical isolates; ATCC29213); assay: MIC by micro broth dilution (CLSI), Staphylococcus aureus; conditions: for MIC50 / MIC90: Clinical strain; for MIC50: read-out: MIC50; for MIC90: read-out: MIC90; for MIC: Standard strain ATCC29213, read-out: MIC
Procedure, shortened: as §2

| IC50 [2] [µM] | IC50 [3] [µM] | IC50 [4] [µM] | MIC50 [5] [µg/mL] | MIC90 [5] [µg/mL] | MIC [5] [µg/mL] | MIC50 [6] [µg/mL] | MIC90 [6] [µg/mL] | MIC [6] [µg/mL] | MIC50 [7] [µg/mL] | MIC90 [7] [µg/mL] | MIC [7] [µg/mL] | SMILES | IC50 [1] [µM] | inhibitory effect against Escherichia coli compared with the reference drug nitroxoline ([5]; MIC comparison) | inhibitory effect against Acinetobacter baumannii compared with the reference drug nitroxoline ([6]; MIC comparison) |
| --- | --- | --- | --- | --- | --- | --- | --- | --- | --- | --- | --- | --- | --- | --- | --- |
| 4.38 | 3.33 | 6.8 | – | – | – | – | – | – | – | – | – | CC1CCCCN1c1ccnc2c(O)c([N+](=O)[O-])ccc12 (centres unmarked) [Example 20, 4-(2-Methylpiperidinyl)-7-nitroquinolin-8-ol] | 5.6 | – | – |
| 4.84 | 6.75 | 6.8 | 8 (≈ 36.3 µM) | 32 (≈ 145 µM) | 8 (≈ 36.3 µM) | 32 (≈ 145 µM) | 64 (≈ 291 µM) | 32 (≈ 145 µM) | 4 (≈ 18.2 µM) | 8 (≈ 36.3 µM) | 8 (≈ 36.3 µM) | COc1ccnc2c(O)c([N+](=O)[O-])ccc12 [Example 21, 4-Methoxy-7-nitroquinolin-8-ol] | 10.3 | – | – |
| 1.99 | 2.31 | 2.3 | 128 (≈ 481 µM) | 128 (≈ 481 µM) | > 128 | 128 (≈ 481 µM) | > 128 | 128 (≈ 481 µM) | 2 (≈ 7.51 µM) | 32 (≈ 120 µM) | 2 (≈ 7.51 µM) | O=[N+]([O-])c1ccc2c(-c3ccccc3)ccnc2c1O [Example 22, 4-Phenyl-7-nitroquinolin-8-ol] | 1.46 | – | – |
| > 100 | > 100 | > 100 | – | – | – | – | – | – | – | – | – | O=[N+]([O-])c1ccc2c(N3CC=CC3)ccnc2c1O [Example 23, 4-(2,5-Dihydro-1H-pyrrolyl)-7-nitroquinolin-8-ol] | > 100 | – | – |
| 48 | 49.6 | 53.6 | 128 (≈ 462 µM) | 128 (≈ 462 µM) | 128 (≈ 462 µM) | 128 (≈ 462 µM) | > 128 | 128 (≈ 462 µM) | 128 (≈ 462 µM) | 128 (≈ 462 µM) | 128 (≈ 462 µM) | CN(C)CCOc1ccnc2c(O)c([N+](=O)[O-])ccc12 [Example 24, 4-(2-(Dimethylamino)ethoxy)-7-nitroquinolin-8-ol] | > 100 | – | – |
| 4.11 | 11.9 | 13.2 | 128 (≈ 615 µM) | > 128 | 64 (≈ 307 µM) | > 128 | > 128 | > 128 | 64 (≈ 307 µM) | 64 (≈ 307 µM) | 64 (≈ 307 µM) | O=[N+]([O-])c1ccc2c(F)ccnc2c1O [Example 27, 4-Fluoro-7-nitroquinolin-8-ol] | 3.17 | – | – |
| 42.3 | 33 | 17 | > 128 | > 128 | > 128 | 64 (≈ 202 µM) | > 128 | > 128 | 32 (≈ 101 µM) | 32 (≈ 101 µM) | > 128 | COC(=O)[C@@H]1CCCN1c1ccnc2c(O)c([N+](=O)[O-])ccc12 [Example 28, Methyl (8-hydroxy-7-nitroquinolin-4-yl)-L-prolinate] | 17.3 | – | – |
| > 100 | > 100 | > 100 | > 128 | > 128 | > 128 | > 128 | > 128 | > 128 | > 128 | > 128 | > 128 | O=[N+]([O-])c1ccc2c(O)ccnc2c1O [Example 30, 7-Nitroquinoline-4,8-diol] | > 100 | – | – |
| 11.5 | 13.2 | 21.7 | – | – | – | – | – | – | – | – | – | O=[N+]([O-])c1cc(Cl)c2c(F)ccnc2c1O [Example 65, 5-Chloro-4-fluoro-7-nitroquinolin-8-ol] | 9.03 | – | – |

More lines, now with the values behind:

| SMILES | IC50 [2] [µM] | IC50 [3] [µM] | IC50 [4] [µM] | MIC50 [5] [µg/mL] | MIC90 [5] [µg/mL] | MIC [5] [µg/mL] | MIC50 [6] [µg/mL] | MIC90 [6] [µg/mL] | MIC [6] [µg/mL] | MIC50 [7] [µg/mL] | MIC90 [7] [µg/mL] | MIC [7] [µg/mL] | IC50 [1] [µM] | inhibitory effect against Escherichia coli compared with the reference drug nitroxoline ([5]; MIC comparison) | inhibitory effect against Acinetobacter baumannii compared with the reference drug nitroxoline ([6]; MIC comparison) |
| --- | --- | --- | --- | --- | --- | --- | --- | --- | --- | --- | --- | --- | --- | --- | --- |
| CN(C)C(=O)N1CCN(c2ccnc3c(O)c([N+](=O)[O-])ccc23)CC1 [Example 25, 4-(8-Hydroxy-7-nitroquinolin-4-yl)-N,N-dimethylpiperazine-1-carboxamide] | 44.5 | 32.4 | 47.2 | 128 (≈ 371 µM) | > 128 | 32 (≈ 92.7 µM) | 128 (≈ 371 µM) | > 128 | > 128 | 16 (≈ 46.3 µM) | 16 (≈ 46.3 µM) | > 128 | 47.6 | – | – |
| COC(=O)N1CCN(c2ccnc3c(O)c([N+](=O)[O-])ccc23)CC1 [Example 26] | 11.4 | 11.9 | 12.5 | > 128 | > 128 | 128 (≈ 385 µM) | 64 (≈ 193 µM) | > 128 | > 128 | 16 (≈ 48.1 µM) | 64 (≈ 193 µM) | 128 (≈ 385 µM) | 15.1 | – | – |
| O=[N+]([O-])c1cc(Cl)c2c(Cl)ccnc2c1O [Example 29, 4,5-dichloro-7-nitroquinolin-8-ol] | 9.11 | 7.03 | 6.5 | 4 (≈ 15.4 µM) | 8 (≈ 30.9 µM) | 4 (≈ 15.4 µM) | 2 (≈ 7.72 µM) | 4 (≈ 15.4 µM) | 2 (≈ 7.72 µM) | 0.5 (≈ 1.93 µM) | 1 (≈ 3.86 µM) | 1 (≈ 3.86 µM) | 6.22 | comparable to that of the reference drug nitroxoline | comparable to that of the reference drug nitroxoline |
| O=[N+]([O-])c1cc(Cl)c2c(C3CC3)ccnc2c1O [Example 49, 5-Chloro-4-cyclopropyl-7-nitroquinolin-8-ol] | 4.07 | 1.04 | 5.32 | – | – | – | – | – | – | – | – | – | 1.59 | – | – |
| CCC(C)OC(=O)N1CCN(c2ccnc3c(O)c([N+](=O)[O-])cc(Cl)c23)CC1 (centres unmarked) [Example 57, (1-Methyl)propyl 4-(5-chloro-8-hydroxy-7-nitroquinolin-4-yl)piperazine-1-carboxylate] | 0.49 | 0.55 | 2.35 | – | – | – | – | – | – | – | – | – | 0.47 | – | – |
| CC(C)OC(=O)N1CCN(c2ccnc3c(O)c([N+](=O)[O-])cc(Cl)c23)CC1 [Example 58, Isopropyl 4-(5-chloro-8-hydroxy-7-nitroquinolin-4-yl)piperazine-1-carboxylate] | 2.55 | 0.89 | 0.91 | – | – | – | – | – | – | – | – | – | 0.68 | – | – |
| O=[N+]([O-])c1cc(Cl)c2c(OC3CCCCC3)ccnc2c1O [Example 60, 5-Chloro-4-(cyclohexyloxy)-7-nitroquinolin-8-ol] | 5.82 | 0.64 | 1.13 | – | – | – | – | – | – | – | – | – | 0.7 | – | – |
| O=[N+]([O-])c1cc(Cl)c2c(N3CCC4(CC3)CC4)ccnc2c1O [Example 63, 5-Chloro-7-nitro-4-(6-azaspiro[2.5]octan-6-yl)quinolin-8-ol] | 7.07 | 2.01 | 7.47 | – | – | – | – | – | – | – | – | – | 1.82 | – | – |
| COc1c(C2CC2)cnc2c(O)c([N+](=O)[O-])ccc12 [Example 75, 3-cyclopropyl-4-methoxy-7-nitroquinolin-8-ol] | 9.27 | 1.77 | 2.05 | – | – | – | – | – | – | – | – | – | 3.41 | – | – |

From patent US20240246916A1, “7-NITRO-8-HYDROXYQUINOLINE DERIVATIVES, PREPARATION METHOD THEREFORE AND MEDICAL USE THEREOF” (Jiangsu Yahong Meditech Co., Ltd., priority 2021, published 2024)
